Reference: patent publication US9278958B2, “Anti-cancer compounds” (KATHOLIEKE UNIVERSITEIT LEUVEN, priority 2012, dated 2016)
Where two headings read alike, the source gives them in different places.

Columns and labels:
[1] = tested on: HeLa cervix carcinoma cells; test: Cytostatic assay, HeLa; type: cell-based, human
Protocol: (§1) To each well of a 96-well microtiter plate were added 5-7.5×10^4 cells and a given amount of the test compound. The cells were allowed to proliferate for 48 h to 96 h (depending on the nature of the cell line) at 37° C. in a humidified CO2-controlled atmosphere. At the end of the incubation period, the cells were counted in a Coulter Counter (Coulter Electronics Ltd, Harpenden Herts, United Kingdom).

CEM cells = test: Cytostatic assay, CEM; type: cell-based; conditions: for Ratio (tumor cell selectivity): ratio IC50 HeLa / IC50 CEM
Protocol: as §1

[2] = Homo sapiens, HeLa cells, Table 7, 5-arylthiomethyl-substituted 2-amino-3-carboxymethylthiophenes, read-out: IC50 (μM) HeLa
[3] = Homo sapiens, CCRF-CEM, CEM cells, Table 7, 5-arylthiomethyl-substituted 2-amino-3-carboxymethylthiophenes, read-out: IC50 (μM) CEM
[4] = Table 1b, read-out: IC50 (μM) (HeLa)
[5] = Table 1b, read-out: IC50 (μM) (CEM)

Compound	IC50 [1, 2] [µM]	IC50 (CEM cells; [3]) [µM]	Ratio (tumor cell selectivity) (CEM cells; Table 7)	IC50 [1, 4] [µM]	IC50 (CEM cells; [5]) [µM]	also measured
COC(=O)c1cc(CSc2ccc(-c3ccccc3)cc2)sc1N [TJ184, Methyl 2-amino-5-((biphenyl-4-ylthio)methyl)thiophene-3-carboxylate]	55	1.2	46			
COC(=O)c1cc(CSc2ccccc2)sc1N1C(=O)c2ccccc2C1=O [TJ86, Methyl 2-phthalimido-5-(2-(phenyl)sulfanylmethyl)thiophene-3-carboxylate]				184 ± 6	13 ± 7	
CCCc1cc(C(=O)OC)c(N)s1 [TJ190, Methyl 2-amino-5-propylthiophene-3-carboxylate]						IC50 ([1]; Homo sapiens, HeLa cells, Table 6, 5-alkyl-substituted 2-aminothiophenes, read-out: IC50 (μM) HeLa): 61 µM; IC50 (CEM cells; Homo sapiens, CCRF-CEM, CEM cells, Table 6, 5-alkyl-substituted 2-aminothiophenes, read-out: IC50 (μM) CEM): 6.9 µM; Ratio (tumor cell selectivity) (CEM cells; Table 6): 9
COC(=O)c1cc(CSc2ccc(OC)cc2)sc1N [TJ22, Methyl 2-amino-5-(2-(4-methoxyphenyl)sulfanylmethyl)thiophene-3-carboxylate]			93	58 ± 1	0.62 ± 0.33	IC50 ([1]; HeLa cells, Table 7, 5-arylthiomethyl-substituted 2-amino-3-carboxymethylthiophenes, read-out: IC50 (μM) HeLa): 58 µM; IC50 (CEM cells; CEM cells, Table 7, 5-arylthiomethyl-substituted 2-amino-3-carboxymethylthiophenes, read-out: IC50 (μM) CEM): 0.62 µM
COC(=O)c1cc(COc2ccc(OC)cc2)sc1N [TJ25, Methyl 2-amino-5-(2-(4-methoxyphenyl)oxymethyl)thiophene-3-carboxylate]				68 ± 13	43 ± 13	
CCc1ccc(SCc2cc(C(=O)OC)c(N)s2)cc1 [TJ185, Methyl 2-amino-5-((4-ethylphenylthio)methyl)thiophene-3-carboxylate]	49	0.34	144			
